Among the data in patent US20220106296A1, “CYANOTRIAZOLE COMPOUNDS AND USES THEREOF” (Novartis AG, priority 2018, published 2022) are IC50 values, retold here.

Common to all, as to type: cell-based
Assay [1] has as its system T. b. brucei Lister427 bloodstream form parasites. Description: T. b. brucei growth inhibition assay (CellTiter-Glo, 48 hours). Conditions: Trypanosoma brucei. From the text:
Bloodstream form of T. b. brucei Lister427 strain was obtained from the Genomics Institute of the Novartis Research Foundation. This strain was used for carrying out growth inhibition and kill kinetics assays. T. b. gambiense STIB930 and T. b. rhodesiense STIB900 were obtained from Swiss TPH, were used for carrying out the growth inhibition assays.
Bloodstream form T. b. brucei Lister 427 parasites were continuously passaged in HMI-9 medium formulated from IMDM medium (Invitrogen), 10% heat-inactivated fetal bovine serum (FBS), 10% Serum Plus medium supplement (SAFC Biosciences), 1 mM hypoxanthine (Sigma-Aldrich), 50 μM bathocuproine disulfonic acid (Sigma-Aldrich), 1.5 mM cysteine (Sigma-Aldrich), 1 mM pyruvic acid (Sigma-Aldrich), 39 μg/mL thymidine (Sigma-Aldrich), and 14 μL/L beta-mercapthoethanol (Sigma-Aldrich); all concentrations of added components refer to that in complete HMI-9 medium. The parasites were cultured in 10 mL of HMI-9 medium in T75 CELL-STAR tissue culture flasks at 37° C./5% CO2.
To determine compound growth inhibitory potency on T. b. brucei Lister427 bloodstream form parasites, 200 nL of 10-point, 3 fold serially diluted compounds in DMSO were transferred to the wells of white, solid bottom 384-well plates (Greiner Bio-One) by either Echo 555 acoustic liquid handling system or Mosquito. Then, 1×10^4 of T. b. brucei parasites in 40 μL of HMI-9 medium were added to each well, and the plates were incubated for 48 hours at 37° C. in 5% CO2 incubators. Parasite numbers in individual plate wells were determined through quantification of intracellular ATP amount. The CellTiter-Glo luminescent cell viability reagent (Promega) was added to plate wells, and ATP-dependent luminescence signal was measured on Tecan M1000 plate Reader after 30 min incubation. Luminescence values in wells with compounds were divided by the average luminescence value of the plate DMSO controls, and used for calculation of compound IC50 values.
A general note: ATP-based viability assays read luminescence as a measure of living cells.

Assay [2] relates to intracellular T. cruzi amastigotes. Description: T. cruzi amastigote growth inhibition assay (NIH 3T3 host cells, β-galactosidase readout). Conditions: Trypanosoma cruzi, NIH3T3, read-out: (c) T.c.* IC50. The method, then: NIH 3T3 fibroblast cells (ATCC) were maintained in RPMI-1640 medium (Life Technologies) supplemented with 10% heat-inactivated fetal bovine serum and 100 IU penicillin/100 μg/ml streptomycin at 37° C./5% CO2. T. cruzi Tulahuen parasites constitutively expressing E. coli β-galactosidase were maintained in tissue culture as an infection in NIH 3T3 fibroblast cells. Briefly, 2×10^7 T. cruzi trypomastigotes were used to infect 6×10^5 NIH 3T3 cells growing in T75 CELLSTAR tissue culture flasks and cultured at 37° C./5% CO2 until proliferating intracellular parasites lysed host 3T3 cells and were released into the culture medium (typically 6-7 days). During the infection, the tissue culture medium was changed every two days. Number of T. cruzi trypomastigotes present in 1 ml of medium was determined using a haemocytometer.
To determine compound potency on intracellular T. cruzi amastigotes, NIH 3T3 cells were re-suspended in phenol red-free RPMI-1640 medium containing 3% heat-inactivated fetal bovine serum and 100 IU penicillin/100 μg/ml streptomycin, seeded at 1,000 cells/well (40 μl) in white, clear bottom 384-well plates (Greiner Bio-One), and incubated overnight at 37° C./5% CO2. The following day, 100 nl of each compound in DMSO were transferred to individual plate wells by Echo 555 acoustic liquid handling system. After one hour incubation, 1×10^6 of tissue culture-derived T. cruzi trypomastigotes, in 10 μl of phenol red-free RPMI-1640 medium supplemented with 3% heat-inactivated fetal bovine serum and 100 IU penicillin/100 μg/ml streptomycin were added to each well. Plates were then incubated for 6 days at 37° C./5% CO2. Intracellular T. cruzi parasites were quantified by measuring the activity of parasite-expressed β-galactosidase. Ten microliters of a chromogenic β-galactosidase substrate solution (0.6 mM chlorophenol red-β-D-galactopyranoside/0.6% NP-40 in PBS; both reagents from Calbiochem) were added to each well and incubated for 2 h at room temperature. After incubation, absorption was measured at 570 nm on SpectraMax M2 plate reader (Molecular Devices). Measured absorbance values in wells with compounds were divided by the average absorbance value of the plate DMSO controls, and used for calculation of compound EC50 values as described above.

The test system of assay [3] is Leishmania donovani axenic amastigote. Description: Growth inhibition of Leishmania donovani axenic amastigote. Conditions: L. donovani growth inhibition, read-out: (d) L.d* IC50. The protocol:
Leishmania donovani axenic amastigote parasites are grown at 37° C., 5% CO2 in media made of RPMI 1640, 4 mM L-glutamine, 20% heat inactivated FBS, 100 units/ml of penicillin and 100 μg/ml of streptomycin, 23 μM Folic Acid, 100 μM Adenosine, 22 mM D-glucose, 25 mM MES. The pH of media is adjusted to 5.5 at 37° C. using HCl. 20 μL of media is first dispensed into 384 well plates and 100 nL of the compounds of invention in DMSO are added to the plate wells. At the same time control compounds and DMSO are added to plates to serve as the positive and negative controls, respectively. 40 μL of parasite culture (9600 parasites) are then added to the plate wells. The plates are then placed into incubators. After 2 day incubation, 20 μL of Cell TiterGlo (Promega) is added to the plate wells. The luminescence signal of each well is measured using the Envision reader (Perkin Elmer). The percentage inhibition of 50%, EC50, is calculated for each of the compounds.

For the compound `N#Cc1ncn(CC(=O)N2Cc3ccc(-c4ccccc4C(F)(F)F)cc3C2)n1` [Example 36, 1-(2-oxo-2-(5-(2-(trifluoromethyl)phenyl)isoindolin-2-yl)ethyl)-1H-1,2,4-triazole-3-carbonitrile], the IC50 is 100 to 1000 nM in assay [1], under 100 nM in assay [2] and at least 1000 nM in assay [3].
For the compound `N#Cc1ncn(CC(=O)N2Cc3ccc(-c4cccnc4CC(F)(F)F)cc3C2)n1` [Example 19, 1-(2-oxo-2-(5-(2-(2,2,2-trifluoroethyl)pyridin-3-yl)isoindolin-2-yl)ethyl)-1H-1,2,4-triazole-3-carbonitrile], the IC50 in assay [1] and in assay [2] was 100 to 1000 nM throughout.
`N#Cc1ncn(CC(=O)N2Cc3ccc(-c4cccc(F)c4C(F)(F)F)cc3C2)n1` [Example 84, 1-(2-(5-(3-fluoro-2-(trifluoromethyl)phenyl)isoindolin-2-yl)-2-oxoethyl)-1H-1,2,4-triazole-3-carbonitrile]: the IC50 was 100 to 1000 nM in assay [1] and under 100 nM in assay [2].
For `N#Cc1ncn(CC(=O)N2Cc3ccc(-c4ccccc4C#N)cc3C2)n1` [Example 43, 1-(2-(5-(2-cyanophenyl)isoindolin-2-yl)-2-oxoethyl)-1H-1,2,4-triazole-3-carbonitrile], the IC50 in assay [1] was 100 to 1000 nM; in assay [2], under 100 nM; in assay [3] it was at least 1000 nM.
Take `Cc1ccc(-c2ccc3c(c2)CN(C(=O)Cn2cnc(C#N)n2)C3)c(C(F)(F)F)n1` [Example 6, 1-(2-(5-(6-methyl-2-(trifluoromethyl)pyridin-3-yl)isoindolin-2-yl)-2-oxoethyl)-1H-1,2,4-triazole-3-carbonitrile]: the IC50 in assay [1] and in assay [2] was under 100 nM each time.
For `COc1cc(F)ccc1-c1ccc2c(c1)CN(C(=O)Cn1cnc(C#N)n1)C2` [Example 51, 1-(2-(5-(4-fluoro-2-methoxyphenyl)isoindolin-2-yl)-2-oxoethyl)-1H-1,2,4-triazole-3-carbonitrile], the IC50 in assay [1] and in assay [2] was 100 to 1000 nM in each case.
Turning to `N#Cc1ncn(CC(=O)N2Cc3ccc(-c4c(F)cc(F)cc4Cl)cc3C2)n1` [Example 10, 1-(2-(5-(2-chloro-4,6-difluorophenyl)isoindolin-2-yl)-2-oxoethyl)-1H-1,2,4-triazole-3-carbonitrile], the IC50 in assay [1] and in assay [2] was under 100 nM each time.
Turning to `N#Cc1ncn(CC(=O)N2Cc3ccc(-c4ccc(F)nc4C(F)(F)F)cc3C2)n1` [Example 26, 1-(2-(5-(6-fluoro-2-(trifluoromethyl)pyridin-3-yl)isoindolin-2-yl)-2-oxoethyl)-1H-1,2,4-triazole-3-carbonitrile], the values for the IC50 in assay [1] and in assay [2] were 100 to 1000 nM and under 100 nM, respectively.
As to `N#Cc1ncn(CC(=O)N2Cc3ccc(-c4c(F)ccnc4C(F)(F)F)cc3C2)n1` [Example 20, 1-(2-(5-(4-fluoro-2-(trifluoromethyl)pyridin-3-yl)isoindolin-2-yl)-2-oxoethyl)-1H-1,2,4-triazole-3-carbonitrile], the IC50 in assay [1] and in assay [2] was under 100 nM each time.
On to `N#Cc1ncn(CC(=O)N2Cc3ccc(-c4c(F)ccc(F)c4Cl)cc3C2)n1` [Example 15, 1-(2-(5-(2-chloro-3,6-difluorophenyl)isoindolin-2-yl)-2-oxoethyl)-1H-1,2,4-triazole-3-carbonitrile], for which the IC50 in assay [1] and in assay [2] was under 100 nM throughout.
For `N#Cc1ncn(CC(=O)N2Cc3ccc(-c4cnccc4C(F)(F)F)cc3C2)n1` [Example 86, 1-(2-oxo-2-(5-(4-(trifluoromethyl)pyridin-3-yl)isoindolin-2-yl)ethyl)-1H-1,2,4-triazole-3-carbonitrile], the IC50 in assay [1] and in assay [2] was 100 to 1000 nM throughout.
On to `Cn1cc(-c2ccc3c(c2)CN(C(=O)Cn2cnc(C#N)n2)C3)c(C(F)(F)F)n1` [Example 25, 1-(2-(5-(1-methyl-3-(trifluoromethyl)-1H-pyrazol-4-yl)isoindolin-2-yl)-2-oxoethyl)-1H-1,2,4-triazole-3-carbonitrile], for which the IC50 in assay [1] and in assay [2] was 100 to 1000 nM in each case.
As to `N#Cc1ncn(CC(=O)N2Cc3ccc(-c4ccc(C(F)(F)F)cc4Cl)cc3C2)n1` [Example 42, 1-(2-(5-(2-chloro-4-(trifluoromethyl)phenyl)isoindolin-2-yl)-2-oxoethyl)-1H-1,2,4-triazole-3-carbonitrile], the results for the IC50 in assay [1] and in assay [2] were 100 to 1000 nM and at least 1000 nM, respectively.
Regarding `N#Cc1ncn(CC(=O)N2Cc3ccc(-c4c(Cl)cccc4Cl)cc3C2)n1` [Example 35, 1-(2-(5-(2,6-dichlorophenyl)isoindolin-2-yl)-2-oxoethyl)-1H-1,2,4-triazole-3-carbonitrile], the IC50 in assay [1] was 100 to 1000 nM; in assay [2], under 100 nM; in assay [3], at least 1000 nM.
For `N#Cc1ccc(-c2ccc3c(c2)CN(C(=O)Cn2cnc(C#N)n2)C3)cc1` [Example 46, 1-(2-(5-(4-cyanophenyl)isoindolin-2-yl)-2-oxoethyl)-1H-1,2,4-triazole-3-carbonitrile], the IC50 in assay [1] was 100 to 1000 nM; in assay [2], 100 to 1000 nM; in assay [3] it was at least 1000 nM.
For the compound `N#Cc1ncn(CC(=O)N2Cc3ccc(-c4c(C(F)(F)F)ccnc4Cl)cc3C2)n1` [Example 7, 1-(2-(5-(2-chloro-4-(trifluoromethyl)pyridin-3-yl)isoindolin-2-yl)-2-oxoethyl)-1H-1,2,4-triazole-3-carbonitrile], the IC50 is 100 to 1000 nM in assay [1] and under 100 nM in assay [2].
On to `N#Cc1ncn(CC(=O)N2Cc3ccc(-c4cccc(Cl)c4C(F)(F)F)cc3C2)n1` [Example 4, 1-(2-(5-(3-chloro-2-(trifluoromethyl)phenyl)isoindolin-2-yl)-2-oxoethyl)-1H-1,2,4-triazole-3-carbonitrile], for which the IC50 in assay [1] and in assay [2] was under 100 nM throughout.
Take `N#Cc1ncn(CC(=O)N2Cc3ccc(-c4ccc(F)cc4C#N)cc3C2)n1` [Example 32, 1-(2-(5-(2-cyano-4-fluorophenyl)isoindolin-2-yl)-2-oxoethyl)-1H-1,2,4-triazole-3-carbonitrile]: the IC50 in assay [1] is 100 to 1000 nM; in assay [2], under 100 nM; in assay [3], at least 1000 nM.
Regarding `CC(=O)c1ccccc1-c1ccc2c(c1)CN(C(=O)Cn1cnc(C#N)n1)C2` [Example 50, 1-(2-(5-(2-acetylphenyl)isoindolin-2-yl)-2-oxoethyl)-1H-1,2,4-triazole-3-carbonitrile], the IC50 in assay [1] and in assay [2] was 100 to 1000 nM each time.

As usually defined, the IC50 is the concentration at which inhibition is half-maximal.
